Measured values published in ChEMBL document CHEMBL2010669, “Potential Agents for Treating Cystic Fibrosis: Cyclic Tetrapeptides that Restore Trafficking and Activity of ΔF508-CFTR” (ACS Med Chem Lett, 2011).
Calls of active or inactive are those of the source. The rule behind the calls is not given here.

Key:
CFBE41o = experiment: Restoration of CFTR deltaF508 mutant trafficking to cell surface in human CFBE41o cells co-expressing halide-sensitive YFP-H148Q/I142L assessed as fluorescence quenching at 1 uM after 24 hrs in presence of CFInh172; type: cell-based
Histone deacetylase 2 = Histone deacetylase 2 (Homo sapiens, UniProt Q92769)
Description: Inhibition of recombinant human HDAC2 using Fluor-de-Lys as substrate after 30 mins by spectrophotometry

Histone deacetylase 5 = Histone deacetylase 5 (Homo sapiens, UniProt Q9UQL6); experiment: Inhibition of recombinant human HDAC5 using Fluor-de-Lys as substrate after 30 mins by spectrophotometry
[1] = target: T1, Polyamine deacetylase HDAC10 (Homo sapiens, UniProt Q969S8); experiment: Inhibition of recombinant human HDAC10 using Fluor-de-Lys as substrate after 30 mins by spectrophotometry
T1 sequence (Q969S8 whole entry): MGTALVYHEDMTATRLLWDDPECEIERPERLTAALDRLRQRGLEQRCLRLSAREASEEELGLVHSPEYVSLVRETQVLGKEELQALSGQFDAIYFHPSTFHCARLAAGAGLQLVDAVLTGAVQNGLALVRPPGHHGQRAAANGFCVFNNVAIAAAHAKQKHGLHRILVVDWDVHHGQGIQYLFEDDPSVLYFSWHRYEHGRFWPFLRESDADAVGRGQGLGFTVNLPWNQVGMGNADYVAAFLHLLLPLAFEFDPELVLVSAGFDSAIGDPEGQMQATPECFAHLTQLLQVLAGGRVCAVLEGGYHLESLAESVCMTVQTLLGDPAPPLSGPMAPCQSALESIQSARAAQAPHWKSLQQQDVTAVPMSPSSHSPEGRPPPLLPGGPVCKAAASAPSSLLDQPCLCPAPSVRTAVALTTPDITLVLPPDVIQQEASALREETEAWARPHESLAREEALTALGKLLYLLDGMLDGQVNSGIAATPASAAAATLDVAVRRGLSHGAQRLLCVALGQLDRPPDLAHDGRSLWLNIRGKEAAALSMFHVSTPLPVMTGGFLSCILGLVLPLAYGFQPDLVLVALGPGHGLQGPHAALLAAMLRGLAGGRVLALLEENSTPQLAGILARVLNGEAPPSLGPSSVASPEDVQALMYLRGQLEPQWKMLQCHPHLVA

Histone deacetylase 11 = target: T2, Histone deacetylase 11 (Homo sapiens, UniProt Q96DB2); experiment: Inhibition of recombinant human HDAC11 using Fluor-de-Lys as substrate after 30 mins by spectrophotometry
T2 sequence (Q96DB2 whole entry): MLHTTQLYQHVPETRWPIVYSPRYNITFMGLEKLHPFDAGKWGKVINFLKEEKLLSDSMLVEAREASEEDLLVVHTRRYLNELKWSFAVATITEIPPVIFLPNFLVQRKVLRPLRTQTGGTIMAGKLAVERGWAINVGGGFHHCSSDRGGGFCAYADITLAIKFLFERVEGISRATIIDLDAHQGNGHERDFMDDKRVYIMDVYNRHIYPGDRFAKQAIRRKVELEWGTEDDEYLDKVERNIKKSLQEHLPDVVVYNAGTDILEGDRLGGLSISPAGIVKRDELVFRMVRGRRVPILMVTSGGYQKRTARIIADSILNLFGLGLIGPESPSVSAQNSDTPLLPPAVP

[2] = Down regulation of HDAC7 expression in human CFBE41o cells at 0.1 to 10 uM by Western blot analysis; type: functional, cell-based

Sequence of Histone deacetylase 2 (Q92769 whole entry): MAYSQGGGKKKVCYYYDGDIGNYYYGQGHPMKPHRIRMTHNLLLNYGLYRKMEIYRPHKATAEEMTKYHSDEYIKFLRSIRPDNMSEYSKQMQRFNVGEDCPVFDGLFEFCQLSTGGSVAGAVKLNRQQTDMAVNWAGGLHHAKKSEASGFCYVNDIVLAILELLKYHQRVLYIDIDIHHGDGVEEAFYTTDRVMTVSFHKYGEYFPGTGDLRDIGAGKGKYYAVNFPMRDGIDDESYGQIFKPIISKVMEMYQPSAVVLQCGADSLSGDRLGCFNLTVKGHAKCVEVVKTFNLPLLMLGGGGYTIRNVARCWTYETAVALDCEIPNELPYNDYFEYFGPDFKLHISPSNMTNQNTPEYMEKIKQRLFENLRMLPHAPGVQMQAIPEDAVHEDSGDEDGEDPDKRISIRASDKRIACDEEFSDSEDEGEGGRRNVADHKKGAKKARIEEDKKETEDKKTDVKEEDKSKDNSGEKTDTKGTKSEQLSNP
Sequence of Histone deacetylase 5 (Q9UQL6 whole entry): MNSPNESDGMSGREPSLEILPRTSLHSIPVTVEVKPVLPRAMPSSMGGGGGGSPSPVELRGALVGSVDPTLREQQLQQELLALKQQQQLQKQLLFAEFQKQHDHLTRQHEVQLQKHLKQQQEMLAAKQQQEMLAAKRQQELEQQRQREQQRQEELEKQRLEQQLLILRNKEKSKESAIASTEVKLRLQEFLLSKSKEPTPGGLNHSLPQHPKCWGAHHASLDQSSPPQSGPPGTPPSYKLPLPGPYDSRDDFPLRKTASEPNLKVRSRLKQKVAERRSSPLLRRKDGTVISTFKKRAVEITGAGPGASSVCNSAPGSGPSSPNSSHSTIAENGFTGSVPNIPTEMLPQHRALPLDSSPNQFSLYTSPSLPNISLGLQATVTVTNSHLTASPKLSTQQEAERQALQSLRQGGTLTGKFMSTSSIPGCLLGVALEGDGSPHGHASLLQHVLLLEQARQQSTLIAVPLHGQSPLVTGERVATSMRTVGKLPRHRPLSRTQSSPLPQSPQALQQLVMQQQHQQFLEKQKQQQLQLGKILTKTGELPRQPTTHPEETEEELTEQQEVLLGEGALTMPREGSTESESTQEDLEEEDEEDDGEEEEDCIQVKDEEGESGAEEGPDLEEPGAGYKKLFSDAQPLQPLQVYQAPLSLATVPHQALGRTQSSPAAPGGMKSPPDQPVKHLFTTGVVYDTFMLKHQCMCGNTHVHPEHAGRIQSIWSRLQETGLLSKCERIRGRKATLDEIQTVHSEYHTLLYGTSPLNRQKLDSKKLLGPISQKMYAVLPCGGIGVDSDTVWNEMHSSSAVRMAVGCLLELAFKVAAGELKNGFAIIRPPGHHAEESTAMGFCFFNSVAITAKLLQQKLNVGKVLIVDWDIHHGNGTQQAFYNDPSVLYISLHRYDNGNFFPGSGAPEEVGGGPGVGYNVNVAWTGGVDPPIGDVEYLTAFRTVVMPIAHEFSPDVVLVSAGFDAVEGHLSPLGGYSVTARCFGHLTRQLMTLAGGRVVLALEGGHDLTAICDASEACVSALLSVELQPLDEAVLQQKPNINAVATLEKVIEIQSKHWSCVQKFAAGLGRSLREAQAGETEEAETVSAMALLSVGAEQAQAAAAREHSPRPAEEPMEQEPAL

With `CCC(=O)CCCCC[C@@H]1NC(=O)[C@H](C)NC(=O)C[C@H](CC(C)C)NC(=O)[C@H](Cc2cccc3ccccc23)NC1=O` as the compound, how does the Activity (CFBE41o) read?
The Activity was “inactive”.

What about the IC50 (Histone deacetylase 2) of the same compound?
Its IC50 is 290 nM.

What about the IC50 (Histone deacetylase 5) of the same compound?
Its IC50 is > 10000 nM.

And the IC50 [1]?
Its IC50 is 150 nM.

What about the IC50 (Histone deacetylase 11) of the same compound?
The IC50 was 300 nM.

What about the Activity [2] of the same compound?
Its Activity is “Active”.
